Converted amounts (≈) assume the structure as drawn. Like-named read-outs stand apart in the source and are kept apart here.
Key:
[1] = tested on: U-937 human histocytic lymphoma; assay: In vitro inhibition rate to tumor cells (MTT), U-937; format: cell-based; conditions: for inhibition rate, Results (%) U-937: 50 μg/ml; for inhibition at 50 µg/mL: Homo sapiens, U-937, 50 μg/ml, read-out: inhibition rate, Results (%) U-937
[2] = tested on: A-549 human lung adenocarcinoma; assay: In vitro inhibition rate to tumor cells (MTT), A-549; format: cell-based; conditions: for inhibition rate, Results (%) A-549: 50 μg/ml; for inhibition at 50 µg/mL: Homo sapiens, A549, 50 μg/ml, read-out: inhibition rate, Results (%) A-549
[3] = tested on: Bel-7402 human hepatic carcinoma; assay: In vitro inhibition rate to tumor cells (MTT), Bel-7402; format: cell-based; conditions: for inhibition rate, Results (%) Bel-7402: 50 μg/ml; for inhibition at 50 µg/mL: Homo sapiens, Bel-7402, 50 μg/ml, read-out: inhibition rate, Results (%) Bel-7402
[4] = tested on: MCF-7 human mammary adenocarcinoma; assay: In vitro inhibition rate to tumor cells (MTT), MCF-7; format: cell-based; conditions: for inhibition rate, Results (%) MCF-7: 50 μg/ml; for inhibition at 50 µg/mL: Homo sapiens, MCF7, 50 μg/ml, read-out: inhibition rate, Results (%) MCF-7
[5] = tested on: SMMC-7721 human hepatic carcinoma; assay: In vitro inhibition rate to tumor cells (MTT), SMMC-7721; format: cell-based; conditions: for inhibition rate, Results (%) SMMC-7721: 50 μg/ml; for inhibition at 50 µg/mL: Homo sapiens, SMMC-7721, 50 μg/ml, read-out: inhibition rate, Results (%) SMMC-7721
[6] = tested on: HL-60 human promyelocytic leukemia; assay: In vitro inhibition rate to tumor cells (MTT), HL-60; format: cell-based; conditions: for inhibition rate, Results (%) HL-60: 50 μg/ml; for inhibition at 50 µg/mL: Homo sapiens, HL-60, 50 μg/ml, read-out: inhibition rate, Results (%) HL-60
[7] = tested on: Hela human cervical carcinoma; assay: In vitro inhibition rate to tumor cells (MTT), Hela; format: cell-based; conditions: 50 μg/ml; for inhibition at 50 µg/mL: Homo sapiens, HeLa, read-out: inhibition rate, Results (%) Hela
[8] = tested on: LLC mouse Lewis lung carcinoma; assay: In vitro inhibition rate to tumor cells (MTT), LLC; format: cell-based; conditions: 50 μg/ml; for inhibition at 50 µg/mL: Mus musculus, Lewis lung carcinoma
[9] = tested on: Hela human cervical carcinoma; assay: In vitro anti-tumor IC50 (MTT), Hela; format: cell-based; conditions: Table 4
Experimental: (§1) (1) Single cell suspension was seeded into 96-well plates (the cells was diluted in the PRMI-1640 minimum medium to 3×10^4 cells/ml, […] diluted cells/well). […] The experiments were performed in quadruplicate.
(§2) (2) The medium was removed. Solutions of the anti-tumor agents (50 compounds) were prepared in a freshly prepared medium at serial concentrations. […] of the solution was added into each well. Incubation was continued for 48 hours.
(§3) (3) 20 ug of 2 mg/ml MTT was added into each well, and incubated for 4 hours.
(§4) (4) The medium was removed from the well. The microplates were swiftly turned down to throw-off the medium. […] of DMSO was added into each well, and vortexed at room temperature for 10 minutes.
(§5) (5) OD value (λ=570 nm) was measured with an Enzyme-Linked Detector.
(§6) (6) The graph of cell vitality was plotted, and IC50 was calculated.

[10] = tested on: U-937 human histocytic lymphoma; assay: In vitro anti-tumor IC50 (MTT), U-937; format: cell-based; conditions: Table 4
Experimental: as §1, §2, §3, §4, §5, §6

[11] = format: cell-based, VSV; conditions: 200 μg/ml, 24 hrs after infection
[12] = tested on: Hepatitis B virus (HBV); format: cell-based; conditions: 200 μg/ml; for (Value of the positive control - Measured Value) Value of the positive control × 100%: decrease of HBeAg relative to positive control; for OD450 of HBeAg: supernatant four days after infection, positive control 1.917, negative 0.057
[13] = tested on: HepG2 cells; assay: Cell status of HepG2 cells treated with sample (HBV screening); format: cell-based; conditions: 200 μg/ml, HepG2, four days after infection
Experimental: 1.5 Screening for the agents: The HepG2 cells were counted and 1.5×10^4 cells/well were seeded into a 96-well plate. After incubation overnight in an atmosphere of CO2 at 37° C., each of the experimental samples in a given concentration was added to the cells. After incubation at 37 °C for 24 hrs, the HepG2 treated with the samples were infected with vAcGFPHBVc of 100 MOI. A negative control and a positive control were also included. Four days after infection, the growth of the cells were observed, and the HBV e antigen in the supernatant was measured with the HBV e antigen diagnostic kit.

[14] = tested on: MDCK (dog kidney) cells; assay: Toxicity TC50 of the samples in MDCK cells (influenza screening); conditions: concentration of 50% toxicity
[15] = tested on: 293 cells; assay: Cell status of 293 cells treated with sample alone (herpes virus screening)
[16] = background statement; cited from earlier work
[17] = tested on: mouse sarcoma 37; conditions: 75 mg/Kg, subcutaneous injection; cited from earlier work
[18] = tested on: uterine cervix cancer; conditions: 75 mg/Kg, subcutaneous injection; cited from earlier work
[19] = tested on: Ehrlich's ascites carcinoma (EAC); conditions: 75 mg/Kg, subcutaneous injection; cited from earlier work
[20] = 50 μg/ml, 293 cells without virus, 12 hrs

## CCCCNC=C1CC2(O)OC3(CC2C(C)C)C(C)CCC13.Cl (centres unmarked) [Compound 14, Curcumol n-butyl amine hydrochloride]
[1]; Table 1
  inhibition rate, Results (%) U-937: 82.88%
[1]; Table 2 (repeated screening)
  inhibition rate, Results (%) U-937: 81.23%
[2]; Table 1
  inhibition rate, Results (%) A-549: 8.09%
[2]; Table 2 (repeated screening)
  inhibition rate, Results (%) A-549: 9.23%
[3]; Table 1
  inhibition rate, Results (%) Bel-7402: 32.00%
[3]; Table 2 (repeated screening)
  inhibition rate, Results (%) Bel-7402: 23.56%
[4]; Table 1
  inhibition rate, Results (%) MCF-7: 56.30%
[4]; Table 2 (repeated screening)
  inhibition rate, Results (%) MCF-7: 54.23%
[5]; Table 1
  inhibition rate, Results (%) SMMC-7721: 6.14%
[5]; Table 2 (repeated screening)
  inhibition rate, Results (%) SMMC-7721: 3.21%
[6]; Table 1
  inhibition rate, Results (%) HL-60: 2.45%
[6]; Table 2 (repeated screening)
  inhibition rate, Results (%) HL-60: 4.35%
[7]; Table 1
  inhibition rate, Results (%) Hela: 75.46%
[7]; Table 2 (repeated screening)
  inhibition rate, Results (%) Hela: 76.32%
[8]; Table 1
  inhibition rate, Results (%) LLC: −10.57%
[8]; Table 2 (repeated screening)
  inhibition rate, Results (%) LLC: −14.29%
[9]
  IC50 (ug/ml) against tumor cell lines, Hela: 1.5 µg/mL
[10]
  IC50 (ug/ml) against tumor cell lines, U-937: 0.58 µg/mL
[11]
  Cytopathy and cell status, Sample + VSV: Cytopathy, poor
[12]
  (Value of the positive control - Measured Value) Value of the positive control × 100%: 97.24%
  OD450 of HBeAg: 0.053
[13]
  Cell status: Poor
[14]
  TC50: 143.17 µg/mL
[15]; [20]
  Cytopathy and cell status, Sample: Good
[15]; 200 μg/ml, 24 hrs
  Cytopathy and cell status, Sample: Poor

## C=C1CC2(O)OC3(CC2C(C)C)C(C)CCC13 (centres unmarked) [Curcumol E, Curcumol, reference compound]
[1]; Table 1
  inhibition at 50 µg/mL: 28%
[1]; Table 2 (repeated screening)
  inhibition at 50 µg/mL: 14.3%
[1]; Table 3 (repeated screening)
  inhibition at 50 µg/mL: 19.8%
[2]; Table 1
  inhibition at 50 µg/mL: -0.57%
[2]; Table 2 (repeated screening)
  inhibition at 50 µg/mL: -11.3%
[2]; Table 3 (repeated screening)
  inhibition at 50 µg/mL: -16.6%
[3]; Table 1
  inhibition at 50 µg/mL: 4.79%
[3]; Table 2 (repeated screening)
  inhibition at 50 µg/mL: 9.87%
[3]; Table 3 (repeated screening)
  inhibition at 50 µg/mL: 9.78%
[4]; Table 1
  inhibition at 50 µg/mL: 55.6%
[4]; Table 2 (repeated screening)
  inhibition at 50 µg/mL: 50.2%
[4]; Table 3 (repeated screening)
  inhibition at 50 µg/mL: 51.2%
[5]; Table 1
  inhibition at 50 µg/mL: -11.5%
[5]; Table 2 (repeated screening)
  inhibition at 50 µg/mL: -12.3%
[5]; Table 3 (repeated screening)
  inhibition at 50 µg/mL: -0.23%
[6]; Table 1
  inhibition at 50 µg/mL: 1.32%
[6]; Table 2 (repeated screening)
  inhibition at 50 µg/mL: 1.23%
[6]; Table 3 (repeated screening)
  inhibition at 50 µg/mL: 1.79%
[7]; Table 1
  inhibition at 50 µg/mL: 86.8%
[7]; Table 2 (repeated screening)
  inhibition at 50 µg/mL: 70.1%
[7]; Table 3 (repeated screening)
  inhibition at 50 µg/mL: 78.6%
[8]; Table 1
  inhibition at 50 µg/mL: -3.04%
[8]; Table 2 (repeated screening)
  inhibition at 50 µg/mL: -8.9%
[8]; Table 3 (repeated screening)
  inhibition at 50 µg/mL: -14.4%
[9]; Homo sapiens, HeLa, read-out: IC50 (ug/ml) against tumor cell lines, Hela
  IC50: 3.23 µg/mL (≈ 13.7 µM)
[12]
  (Value of the positive control - Measured Value) Value of the positive control × 100%: −38.4455%
  OD450 of HBeAg: 2.654
[13]
  Cell status: Normal
[16]
  water solubility (in words): Poor water solubility
[17]
  inhibition rate against mouse sarcoma 37 (in words): high inhibition rate
[18]
  inhibition rate against uterine cervix cancer (in words): high inhibition rate
[19]
  inhibition rate against Ehrlich's ascites carcinoma (in words): high inhibition rate
[14]
  TC50: >1000 µg/mL
[15]; [20]
  Cytopathy and cell status, Sample: Good

Source: US7700584B2 (Hangzhou Minsheng Pharmaceuticals Co., Ltd., priority 2004, dated 2010)
